From patent publication US20240238237A1, “CONJUGATED LINOLEIC ACID SUPPLEMENTATION FOR DISEASE TREATMENT” (VIRGINIA TECH INTELLECTUAL PROPERTIES, INC., priority 2021, published 2024)
“Also recorded” adds a separate entry of the source.

Columns and labels:
[1] = test system: WT, PWS (Snord116m+/p−) and PWS-KO (Snord116m−/p−) mice; assay: Fasting glucose and glucose tolerance test; assay type: in vivo, mouse; settings: all genotypes, after 12 weeks diet, vs control diet
Experimental: Mice were food-deprived for 12-15 h during the dark cycle in a cage devoid of bedding material. For the fasting measurement, the tail was snipped (1-2 mm), and blood was collected directly on Care Touch glucose test strips and directly measured using a Care Touch blood glucose monitor (Future Diagnostics USA, Brooklyn, NY, USA). Glucose (pharmaceutical grade dextrose, 2 g/kg in PBS, sterile) was injected intraperitoneally (IP) and tail blood samples were obtained at 15, 30, 60, 90, and 120 min following the injection. Area under the curve was calculated using the formula (((([fasting glucose×7.5]+[15 min glucose×15)+[30 min glucose×22.5])+[60 min glucose×30])+[90 min glucose×30])+[120 min glucose×15]).

[2] = test system: N2KO (Nhlh2 deletion) and WT mice; assay: Body weight, body fat and lean mass in N2KO mice, Example 3; assay type: in vivo, mouse
Experimental: In males, incidence of HH is as high as one in 4000, with incidence in females being about 2-5 times lower. It was previously shown that mice containing a mutation of Nhlh2, a neuronal basic-helix-loop-helix transcription factor show a failure of pubertal onset, adult-onset obesity and hypogonadism. These mice are termed N2KO mice. […] In this Example, N2KO and WT mice were treated with about 0.5% CLA for 12 weeks.

[3] = test system: C57Bl/6 WT and PWS mice; 129v/J WT and Nhlh2 KO mice; assay: Elevated plus maze anxiety symptoms, Example 2; assay type: in vivo, mouse
Experimental: Mice were tested, using a pre-post design and an elevated plus maze for anxiety symptoms FIG. 16A. Mice that are anxious generally will spend less time in the open arms, compared to those without anxiety. PWS patients show a number of neurobehavioural traits with the most commonly diagnosed phenotype being anxiety. In this study mice were placed in the middle of a plus-type maze, and entrance, as well as time spent in open or closed arms over a 5 minute period were tested. Mice were tested only once before entering the 12-week feeding stud, and once at the end of the 12-week feeding study. The percent time is reported. The data shown in FIG. 16B-16C show a comparison between pre-week test results, and the two treatment groups for each genotype in the post-week test. As shown in FIGS. 16B and 16C, the percent time in open arms was less for all animals. […] These findings can be translated to treatment of humans with anxiety.

[4] = test system: Normal, Snord116m+/p− (PWS model) and PWS KO mice; assay: Body weight, body fat and lean mass, 12-week feeding study, Example 2; assay type: in vivo, mouse; settings: 12 weeks, CLA 0.5% per gram food
From the text: Normal an d Snord116^m+/p− mice (PWS model), as well as mice with a complete deletion of Snord116 (PWS KO) were randomly divided into control or CLA-treatment groups. the diets (from Envigo/Harland-Teklad) were composed of 20% fat, and matched in all other components. Conjugated linoleic acid (Tonalin™, composed of 60%-90% of the cis-9, trans-11 and trans-10, cis-12 CLA isomers in a 50/50 ratio) was provided to the CLA-treatment groups to equal 0.5% per gram food intake.
Adult mice (aged 8-10 weeks) were housed individually, and given ad libitum access to either control or CLA food for 12 weeks. They were weighed weekly, and food intake, body fat, body lean mass, and rectal temperature were measured weekly.

N2KO mice = settings: 20% fat diet, refs [13-16]; cited from earlier work
[5] = test system: cecal bacterial communities; assay: Cecum microbiome analysis (16S rRNA sequencing); assay type: in vivo, mouse
Experimental: Cecal samples were flash-frozen in liquid nitrogen and stored at −80° C. DNA was isolated from cecal content using a DNeasy PowerSoil Pro Kit (Qiagen #47014) and the TissueLyser II (Qiagen #85300). Fifty nanograms of genomic DNA was utilized for amplifi-cation of the V4 variable region of the 16S rRNA gene using 515F/806R primers. Forward and reverse primers were barcoded to accommodate multiplexing up to 384 samples per run as described by Kozich and colleagues. Paired-end sequencing (2×250 bp) of pooled amplicons was carried out using an Illumina Miseq platform with ˜30% PhiX DNA.
Demultiplexing, adapter trimming, and generating the fastq files were performed au-tomatically using the Miseq Reporter on the instrument computer. Bioinformatics analysis was then conducted using the QIIME 2 platform. Denoising was performed with an initial quality filtering followed by the Deblur algorithm. Representative amplicon sequence variants (ASVs) were used to generate a phylogenetic tree with FastTree, and taxonomy was assigned using a Naive Bayes classifier trained on the Greengenes 13_8 reference. To evaluate diversity metrics, samples were rarefied to an even depth of 4397 quality-filtered reads. Beta diversity was assessed using the weighted Unifrac distances and visualized using the principal coordinate analysis (PCoA) plot.
Statistical analyses for microbiome data were performed in R v4.0.5. Differences in beta diversity were evaluated using permutational multivariate analysis of variance (PERMANOVA) with 999 permutations and including the weighted Unifrac distance matrix. The Kruskal-Wallis test was used to evaluate alpha metrics and taxonomic differences and the Dunn's test was used to evaluate pairwise multiple comparisons, with p-values corrected for multiple testing using the false discovery rate (FDR) approach.

## conjugated linoleic acid [CLA]
[1]
  Fasting glucose: significantly higher; also recorded: significantly increased fasting glucose
[2]; 12 weeks CLA
  Lean mass, N2KO study: significantly improved
[2]; about 0.5% CLA for 12 weeks
  Body fat, N2KO mice: reduced; also recorded: decreased body fat; also recorded: significant reduction
  Body weight, N2KO mice: reduced body weight; also recorded: improved body weight; also recorded: significant reduction
[3]; 12 weeks CLA vs control diet
  Percent time in open arms, 129v/J WT and Nhlh2 KO mice: highly significant improvement
[3]; C57Bl/6 PWS mice, post-week
  Percent time in open arms, PWS mice: numeric improvement
[4]
  Lean (muscle) mass: no changed; also recorded: did not change
[4]; vs control diet
  Body fat: significant reduction
  Body weight: significant reduction
N2KO mice
  Outcomes of CLA treatment of N2KO mice: weight loss, decreased body fat, increased metabolism, muscle mitochondrial biogenesis, and increased exercise performance
[5]; CLA vs control diet, p=0.04
  Relative abundance of Cyanobacteria: lower
[5]; H=3.74, p=0.59
  Firmicutes phylum overall: not significantly affected
[5]; H=13.8, p=0.02
  Sutterella sp.: significantly increased
[5]; all genotypes
  Ruminococcus sp.: reduced
[5]; all genotypes, H=15.7, p=0.008
  Turicibacter sp.: significantly reduced
[5]; between diets, p>0.09
  Relative abundance of the other phyla: similar
[5]; control vs CLA, p≤0.02
  α-diversity metrics: differed
[5]; weighted Unifrac
  β-diversity measures: significantly impacted
